The target of experiment [1] is T1, human progesterone receptor B (Homo sapiens, UniProt P06401).
T1 construct: expressed in transfected cells; host or cells: SK-N-MC human neuroblastoma cells, stably transfected with pRChPR-B-neo and pMMTV-LUC
T1 sequence (P06401 1-933): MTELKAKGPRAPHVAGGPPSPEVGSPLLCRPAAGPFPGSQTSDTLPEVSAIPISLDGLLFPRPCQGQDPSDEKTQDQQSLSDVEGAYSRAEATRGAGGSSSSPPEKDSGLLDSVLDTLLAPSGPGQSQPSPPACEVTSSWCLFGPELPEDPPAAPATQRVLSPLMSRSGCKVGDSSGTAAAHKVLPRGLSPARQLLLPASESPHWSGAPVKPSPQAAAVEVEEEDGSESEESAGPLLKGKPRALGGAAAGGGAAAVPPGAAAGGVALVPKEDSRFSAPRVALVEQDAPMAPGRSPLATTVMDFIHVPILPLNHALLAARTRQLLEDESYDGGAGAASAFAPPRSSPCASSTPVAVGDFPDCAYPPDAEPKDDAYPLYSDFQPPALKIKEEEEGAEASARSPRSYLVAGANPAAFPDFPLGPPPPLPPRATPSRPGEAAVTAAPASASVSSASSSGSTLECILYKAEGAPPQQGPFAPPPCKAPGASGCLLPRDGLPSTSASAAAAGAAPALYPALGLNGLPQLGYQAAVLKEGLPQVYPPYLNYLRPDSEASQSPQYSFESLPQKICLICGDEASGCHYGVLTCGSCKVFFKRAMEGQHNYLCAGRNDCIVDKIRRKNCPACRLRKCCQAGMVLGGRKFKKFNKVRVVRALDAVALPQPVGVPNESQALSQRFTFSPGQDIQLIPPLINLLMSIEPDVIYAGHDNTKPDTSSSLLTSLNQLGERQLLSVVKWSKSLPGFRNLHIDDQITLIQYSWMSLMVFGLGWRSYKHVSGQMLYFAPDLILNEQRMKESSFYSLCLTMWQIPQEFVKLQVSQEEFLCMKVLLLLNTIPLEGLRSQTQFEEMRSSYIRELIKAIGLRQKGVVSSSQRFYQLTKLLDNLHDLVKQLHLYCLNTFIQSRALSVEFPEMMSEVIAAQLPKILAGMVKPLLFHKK
As to the kind of experiment: Progesterone receptor-antagonistic action in stably transfected SK-N-MC cells, PR-B, MMTV-LUC reporter. The experiment is classed as cell-based. As to conditions: read-out: IC50 PR-B. As for the experimental part:
(§1) Determination of Progesterone Receptor-Antagonistic Action in Stable Transfectants of Human Neuroblastoma Cells (SK-N-MC Cells) with the Human Progesterone a or Progesterone B Receptor and an MN-LUC Reporter Construct
(§2) SK-N-MC cells (human neuroblastoma cells) which have been stably transfected with plasmids expressing the human progesterone receptor B (pRChPR-B-neo) or the human progesterone receptor A (pRChPR-A-neo) and a reporter construct (pMMTV-LUC) were incubated for 24 hours either in the absence (negative control) or in the presence of ascending amounts of the particular test compound (0.01 nmol/l, 0.1 nmol/l, 1 nmol/l, 10 nmol/l, 100 nmol/l and […]), in order to determine the agonistic efficacy. As a positive control of the reporter gene induction, the cells were treated with the synthetic gestagen promegestone (0.01 nmol/l, 0.1 nmol/l, 1 nmol/l, 10 nmol/l, 100 nmol/l and […]). To determine the antagonistic activity, the cells were treated with 0.1 nmol/l promegestone and additionally with ascending amounts of the particular test compound (0.01 nmol/l, 0.1 nmol/l, 1 nmol/l, 10 nmol/l, 100 nmol/l and […]). The activity of the reporter gene LUC (LUC=luciferase) was determined in the cell lysates and measured as RLU (relative light units). All measurements are reported as % efficacy and as EC50 and IC50 concentrations.

Experiment [2] has as its target T2, human progesterone receptor A (Homo sapiens, UniProt P06401).
T2 construct: expressed in transfected cells; host or cells: SK-N-MC human neuroblastoma cells, stably transfected with pRChPR-A-neo and pMMTV-LUC
T2 sequence (P06401 1-769 isoform P06401-2): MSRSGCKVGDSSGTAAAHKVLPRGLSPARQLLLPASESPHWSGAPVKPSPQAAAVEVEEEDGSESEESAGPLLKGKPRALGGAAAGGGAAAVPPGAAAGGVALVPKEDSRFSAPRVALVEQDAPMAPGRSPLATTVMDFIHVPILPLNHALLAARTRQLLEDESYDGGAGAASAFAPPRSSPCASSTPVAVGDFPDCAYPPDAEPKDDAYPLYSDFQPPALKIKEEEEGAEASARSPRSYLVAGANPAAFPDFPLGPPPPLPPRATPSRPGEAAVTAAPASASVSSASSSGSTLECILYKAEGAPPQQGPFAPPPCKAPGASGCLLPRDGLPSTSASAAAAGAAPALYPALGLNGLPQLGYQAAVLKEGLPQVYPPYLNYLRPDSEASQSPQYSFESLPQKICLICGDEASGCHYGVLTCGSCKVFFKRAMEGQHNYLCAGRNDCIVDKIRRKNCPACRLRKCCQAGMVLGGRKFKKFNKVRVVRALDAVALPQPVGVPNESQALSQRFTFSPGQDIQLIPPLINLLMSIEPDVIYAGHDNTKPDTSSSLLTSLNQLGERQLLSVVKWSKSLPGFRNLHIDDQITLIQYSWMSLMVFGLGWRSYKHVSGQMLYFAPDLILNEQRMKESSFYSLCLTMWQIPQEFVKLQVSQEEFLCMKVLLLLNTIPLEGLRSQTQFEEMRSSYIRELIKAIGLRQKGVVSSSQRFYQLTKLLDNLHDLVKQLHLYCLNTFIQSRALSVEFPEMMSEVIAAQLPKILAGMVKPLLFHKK
As to the kind of experiment: Progesterone receptor-antagonistic action in stably transfected SK-N-MC cells, PR-A, MMTV-LUC reporter. It counts as cell-based. The following applies: read-out: IC50 PR-A. As for the experimental part:
as §1, §2

As usually defined, the IC50 is the concentration that gives 50% inhibition. In the case of `CC(C)(O)C#Cc1ccc([C@H]2C[C@@]3(C)[C@@H](CC[C@@]3(O)C(F)(F)C(F)(F)F)[C@@H]3CCC4=CC(=O)CCC4=C32)cc1` [Example 21, (8S,11R,13S,14S,17S)-17-hydroxy-11-[4-(3-hydroxy-3-methylbut-1-ynyl)phenyl]-13-methyl-17-pentafluoroethyl-1,2,6,7,8,11,12,13,14,15,16,17-dodecahydrocyclopenta[a]phenanthren-3-one], the half-maximal inhibitory concentration (IC50) in experiment [1] stood at 1 nM; in experiment [2], 0.36 nM.

As for `C#Cc1ccc([C@H]2C[C@@]3(C)C(CC[C@@]3(O)C(F)(F)C(F)(F)F)C3CCC4=CC(=O)CCC4=C32)cc1` (stereo partly drawn) [Example 22, (8S,11R,13S,14S,17S)-1′-(4-ethynylphenyl)-17-hydroxy-13-methyl-17-pentafluoroethyl-1,2,6,7,8,11,12,13,14,15,16,17-dodecahydrocyclopenta[a]phenanthren-3-one], the IC50 in experiment [1] and in experiment [2] was 0.014 nM in each case.

On to `C[C@]12C[C@H](c3ccc(C#CCN=[N+]=[N-])cc3)C3=C4CCC(=O)C=C4CC[C@H]3[C@@H]1CC[C@@]2(O)C(F)(F)C(F)(F)F` [Example 23, (8S,11R,13S,14S,17S)-11-[4-(3-azidoprop-1-yn-1-yl)phenyl]-17-hydroxy-13-methyl-17-pentafluoroethyl-1,2,6,7,8,11,12,13,14,15,16,17-dodecahydrocyclopenta[a]phenanthren-3-one], for which the IC50 in experiment [1] stood at 0.3 nM; in experiment [2], 0.2 nM.

As to `C[C@]12C[C@H](c3ccc(C#C/C=N\OCc4ccccc4)cc3)C3=C4CCC(=O)C=C4CCC3C1CC[C@@]2(O)C(F)(F)C(F)(F)F` (stereo partly drawn) [Example 24B, (Z)-[4-((8S,11R,13S,14S,17S)-17-hydroxy-13-methyl-3-oxo-17-pentafluoroethyl-2,3,6,7,8,11,12,13,14,15,16,17-dodecahydro-1H-cyclopenta[a]phenanthren-1′-yl)phenyl]propynal O-benzyl oxime], the IC50 in experiment [1] and in experiment [2] was 0.1 nM each time.

`CCO/N=C\C#Cc1ccc([C@H]2C[C@@]3(C)C(CC[C@@]3(O)C(F)(F)C(F)(F)F)C3CCC4=CC(=O)CCC4=C32)cc1` (stereo partly drawn) [Example 25B, (Z)-[4-((8S,11R,13S,14S,17S)-17-hydroxy-13-methyl-3-oxo-17-pentafluoroethyl-2,3,6,7,8,11,12,13,14,15,16,17-dodecahydro-1H-cyclopenta[a]phenanthren-1′-yl)phenyl]propynal O-ethyl oxime]: the IC50 in experiment [1] and in experiment [2] was 0.09 nM in each case.

As for `Cc1noc(C)c1NC(=O)NCC#Cc1ccc([C@H]2C[C@@]3(C)C(CC[C@@]3(O)C(F)(F)C(F)(F)F)C3CCC4=CC(=O)CCC4=C32)cc1` (stereo partly drawn) [Example 28, 1-(3,5-dimethylisoxazol-4-yl)-3-{3-[4-((8S,11R,13S,14S,17S)-17-hydroxy-13-methyl-3-oxo-17-pentafluoroethyl-2,3,6,7,8,11,12,13,14,15,16,17-dodecahydro-1H-cyclopenta[a]phenanthren-1′-yl)phenyl]prop-2-ynyl}urea], the half-inhibitory concentration (IC50) in experiment [1] turned out to be 0.08 nM; in experiment [2], 0.04 nM.

Consider `CC(C)NC(=O)NCC#Cc1ccc([C@H]2C[C@@]3(C)[C@@H](CC[C@@]3(O)C(F)(F)C(F)(F)F)[C@@H]3CCC4=CC(=O)CCC4=C32)cc1` [Example 29, 1-{3-[4-((8S,11R,13S,14S,17S)-17-hydroxy-13-methyl-3-oxo-17-pentafluoroethyl-2,3,6,7,8,11,12,13,14,15,16,17-dodecahydro-1H-cyclopenta[a]phenanthren-11-yl)phenyl]prop-2-ynyl}-3-isopropylurea], for which the half-maximal inhibitory concentration (IC50) in experiment [1] and in experiment [2] was 0.1 nM in each case.

Regarding `CCOC(=O)CCNC(=O)NCC#Cc1ccc([C@H]2C[C@@]3(C)C(CC[C@@]3(O)C(F)(F)C(F)(F)F)C3CCC4=CC(=O)CCC4=C32)cc1` (stereo partly drawn) [Example 30, 3-(3-{3-[4-((8S,11R,13S,14S,17S)-17-hydroxy-13-methyl-3-oxo-17-pentafluoroethyl-2,3,6,7,8,11,12,13,14,15,16,17-dodecahydro-1H-cyclopenta[a]phenanthren-1′-yl)phenyl]prop-2-ynyl}ureido)propionic acid ethyl ester], the IC50 was 0.4 nM in experiment [1] and 0.1 nM in experiment [2].

For `COc1ccc(NC(=O)NCC#Cc2ccc([C@H]3C[C@@]4(C)[C@@H](CC[C@@]4(O)C(F)(F)C(F)(F)F)[C@@H]4CCC5=CC(=O)CCC5=C43)cc2)cc1` [Example 32, 1-{3-[4-((8S,11R,13S,14S,17S)-17-hydroxy-13-methyl-3-oxo-17-pentafluoroethyl-2,3,6,7,8,11,12,13,14,15,16,17-dodecahydro-1H-cyclopenta[a]phenanthren-11-yl)phenyl]prop-2-ynyl}-3-(4-methoxyphenyl)urea], the figures for the IC50 in experiment [1] and in experiment [2] were 0.1 nM and 0.2 nM, respectively.

Regarding `CC(C)(C)c1ccc(NC(=O)NCC#Cc2ccc([C@H]3C[C@@]4(C)[C@@H](CC[C@@]4(O)C(F)(F)C(F)(F)F)[C@@H]4CCC5=CC(=O)CCC5=C43)cc2)cc1` [Example 33, 1-{3-[4-((8S,11R,13S,14S,17S)-17-hydroxy-13-methyl-3-oxo-17-pentafluoroethyl-2,3,6,7,8,11,12,13,14,15,16,17-dodecahydro-1H-cyclopenta[a]phenanthren-11-yl)phenyl]prop-2-ynyl}-3-(4-tert-butylphenyl)urea], the values for the IC50 in experiment [1] and in experiment [2] were 0.8 nM and 0.9 nM, respectively.

As to `C[C@]12C[C@H](c3ccc(C#CCNC(=O)Nc4ccc(Cl)cc4)cc3)C3=C4CCC(=O)C=C4CC[C@H]3[C@@H]1CC[C@@]2(O)C(F)(F)C(F)(F)F` [Example 35, 1-{3-[4-((8S,11R,13S,14S,17S)-17-hydroxy-13-methyl-3-oxo-17-pentafluoroethyl-2,3,6,7,8,11,12,13,14,15,16,17-dodecahydro-1H-cyclopenta[a]phenanthren-11-yl)phenyl]prop-2-ynyl}-3-(4-chlorophenyl)urea], the half-maximal inhibitory concentration (IC50) in experiment [1] and in experiment [2] was 0.4 nM throughout.

Regarding `CCOC(=O)c1ccc(NC(=O)NCC#Cc2ccc([C@H]3C[C@@]4(C)C(CC[C@@]4(O)C(F)(F)C(F)(F)F)C4CCC5=CC(=O)CCC5=C43)cc2)cc1` (stereo partly drawn) [Example 37, 4-(3-{3-[4-((8S,11R,13S,14S,17S)-17-hydroxy-13-methyl-3-oxo-17-pentafluoroethyl-2,3,6,7,8,11,12,13,14,15,16,17-dodecahydro-1H-cyclopenta[a]phenanthren-1′-yl)phenyl]prop-2-ynyl}ureido)benzoic acid ethyl ester], the IC50 was 0.4 nM in experiment [1] and 0.1 nM in experiment [2].

For the origin of these results see patent US9102701B2, “17-hydroxy-17-pentafluoroethyl-estra-4,9(10)-diene-11-ethynylphenyl derivatives, methods for the production thereof and use thereof for treating diseases” (Bayer Intellectual Property GmbH, priority 2009, dated 2015).
